We go through twelve compounds from patent US20220009906A1, “ISOINDOLIN-1-ONE DERIVATIVES USEFUL AS GRK2 INHIBITORS” (priority 2020, published 2022).

The target of assay [1] is T1, GRK2 (Homo sapiens, UniProt P25098).
T1 sequence (P25098 1-689): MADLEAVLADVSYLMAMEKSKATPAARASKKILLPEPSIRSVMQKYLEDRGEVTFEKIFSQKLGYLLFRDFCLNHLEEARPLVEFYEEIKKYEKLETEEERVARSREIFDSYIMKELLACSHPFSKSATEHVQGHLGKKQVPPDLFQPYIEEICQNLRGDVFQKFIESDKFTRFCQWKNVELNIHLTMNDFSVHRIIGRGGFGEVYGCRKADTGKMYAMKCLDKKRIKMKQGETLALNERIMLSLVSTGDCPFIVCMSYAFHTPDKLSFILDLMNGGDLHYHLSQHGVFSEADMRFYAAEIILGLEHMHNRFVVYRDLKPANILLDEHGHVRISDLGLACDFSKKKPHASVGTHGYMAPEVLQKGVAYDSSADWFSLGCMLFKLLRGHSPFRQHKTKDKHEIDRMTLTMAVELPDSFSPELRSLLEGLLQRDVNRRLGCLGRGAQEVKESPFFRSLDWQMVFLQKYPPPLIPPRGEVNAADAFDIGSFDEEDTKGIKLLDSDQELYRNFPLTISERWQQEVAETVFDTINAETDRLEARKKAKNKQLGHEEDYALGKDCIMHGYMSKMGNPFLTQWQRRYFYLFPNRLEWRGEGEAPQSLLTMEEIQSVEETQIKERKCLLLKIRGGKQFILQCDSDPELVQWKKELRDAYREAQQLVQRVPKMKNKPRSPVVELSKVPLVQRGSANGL
Kind of assay: hGRK2 LANCE Ultra In Vitro Assay. The format is biochemical. Summed up:
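TR-FRET kinase assay with 10 nM GRK2 preincubated 30 min with compound, then 200 nM ULight-peptide and 30 or 600 μM ATP in HEPES pH 7.5, 10 mM MgCl2, 1% DMSO; 120 or 60 min at ambient temperature respectively.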

Assay [2] deals with T1, GRK2. Kind of assay: GRK2 Transcreener Assay. The format is biochemical. The settings on record: Biological Example 2 GRK2 Transcreener IC50 (μM), 10 nM GRK2; 10 μM ATP; 150 μM peptide substrate; multiple measurements listed individually. Here is the method:
Positive and negative control wells received an equal volume of DMSO. The final DMSO concentration in the assay is 1%.
The plate was placed in centrifuge equipped with a spin-bucket rotor and spun for 1 min at 1000 rpm.
GRK2 enzymatic reactions were initiated with the addition of 2 μL/well of 50 nM GRK2 in assay buffer. Plates were centrifuged for 1 min at 1000 rpm. For negative control wells, the order of reagent addition was reversed: 10 μL/well ADP detection mix (see below) was added first, followed by the addition of 2 μL/well of the GRK2 solution. Reaction mixtures were incubated at ambient temperature for 2 hours. Final concentrations of reagents in the assays were as follows:
Following incubation, the reactions were quenched with 10 μL/well of the Transcreener ADP detection mix. […] The plates were then centrifuged for 1 min at 1000 rpm.
Fluorescence polarization values of the reaction mixtures were read on a Safire plate reader after a 60 min incubation at ambient temperature. Excitation wavelength=590 nm; emission wavelength=650 nm.
The fluorescence polarization data were converted to % activity as follows:
% activity=(sample−NC)/(PC−NC)*100
where NC is the mean of negative control (ADP detection mix added prior to GRK2 addition), and PC is the mean of positive control (GRK2 reaction without inhibitor). IC50 values are determined from a 4-parameter fit, using the following equation:
Y=Bottom+(Top−Bottom)/(1+10^((Log IC50−X)*Hill slope))
where X=log10 of the compound concentration.

Where [3] appears, read: Biological Example 1 GRK2 Lancer IC50 (μM), 10 nM GRK2, 30 or 600 μM ATP (not stated which), multiple measurements listed individually.

By IC50 is commonly meant the concentration at which inhibition is half-maximal. A lower IC50 goes with greater potency. Turning to `COc1cccc(CN2C(=O)c3cc(-c4cn[nH]c4)ccc3C2CC#N)c1` (stereo not drawn) [Compound 15], the results for the IC50 at GRK2 [1] (setting [3]) and against GRK2 [2] were 0.005 µM and < 0.005 µM, respectively.
Consider `Cc1cccc([C@@H](C)N2Cc3ccc(-c4cn[nH]c4)cc3C2=O)n1` [Compound 25], for which the IC50 at GRK2 [2] turned out to be 0.546 µM.
Still for that read-out and setting: with `O=C1c2cc(-c3cn[nH]c3)ccc2CN1Cc1cccc(F)c1` [Compound 16, 2-(3-Fluorobenzyl)-6-(1H-pyrazol-4-yl)isoindolin-1-one] the figure was 0.017 µM; with `COc1cccc(CN2C(=O)c3cc(-c4cn[nH]c4)ccc3C23CC(O)C(O)C3)c1` (stereo not drawn) [Compound 8, 3,4-dihydroxy-2′-(3-methoxybenzyl)-5′-(1H-pyrazol-4-yl)spiro[cyclopentane-1,1′-isoindolin]-3′-one], 0.009 µM.
In the case of `COc1cccc([C@@H](C)N2Cc3ccc(-c4cn[nH]c4)cc3C2=O)c1` [Compound 13, (R)-2-(1-(3-methoxyphenyl)ethyl)-6-(1H-pyrazol-4-yl)isoindolin-1-one], the IC50 at GRK2 [1] and against GRK2 [2] was < 0.005 µM throughout.
`CNC(=O)c1ccc(-c2ccc3c(c2)C(=O)N(Cc2cccc(OC)c2)C3)cn1` [Compound 23, 5-(2-(3-methoxybenzyl)-3-oxoisoindolin-5-yl)-N-methylpicolinamide]: the IC50 on GRK2 [2] was > 50 µM.
Still for that read-out and setting: with `CCOc1cccc(CN2Cc3ccc(-c4ccnc(N)n4)cc3C2=O)c1` [Compound 11] the figure was 0.383 µM; with `COc1cccc(CN2C(=O)c3cc(-c4cn[nH]c4)ccc3C23CC=CC3)c1` [Compound 6, 2′-(3-methoxybenzyl)-5′-(1H-pyrazol-4-yl)spiro[cyclopentane-1,1′-isoindolin]-3-en-3′-one], 0.01 µM; with `CS(=O)(=O)Nc1cccc(CN2Cc3ccc(-c4cn[nH]c4)cc3C2=O)c1` [Compound 9], 0.291 µM.
Still for that read-out and setting: under `COC(=O)c1cccc([C@@H](C)N2Cc3ccc(-c4cn[nH]c4)cc3C2=O)c1` [Compound 165] stands > 50 µM.
As to `CC(C)NC(=O)c1cccc(CN2Cc3ccc(-c4cn[nH]c4)cc3C2=O)c1` [Compound 19, N-isopropyl-3-[[1-oxo-6-(1H-pyrazol-4-yl)isoindolin-2-yl]methyl]benzamide], the concentration for half-maximal inhibition (IC50) at GRK2 [1] (setting [3]) and against GRK2 [2] was < 0.005 µM in each case.
Turning to `COc1cccc(CN2C(=O)c3cc(-c4c[nH]nn4)ccc3C2(C)C)c1` [Compound 21, 2-(3-methoxybenzyl)-3,3-dimethyl-6-(1H-1,2,3-triazol-4-yl)isoindolin-1-one], it took 0.054 µM to reach half-maximal inhibition against GRK2 [2] (IC50).
